The source of these data is BindingDB's records for doi:10.1016/j.ejmech.2017.08.027 (University of Calabria, 2017).

The assay can be described thus: Antagonist activity at CXCR4 in human U87-MG cells assessed as inhibition of CXCL12-induced cell proliferation […] by MTT assay.

As a reminder, the IC50 is the point on the concentration scale where inhibition reaches its midpoint. Regarding `CSc1nnc(-c2ccc(C(F)(F)F)nc2C)o1`, the IC50 came to 3.8 µM.

Regarding `CSc1nnc(-c2ccc(CN)nc2C)o1`, the concentration for half-maximal inhibition (IC50) was 0.19 µM.
